“Also recorded” adds a separate entry of the source.
What was measured:
RAW 264.7 cells = assay: MTT assay, cell viability after 24 h incubation; conditions: for cell viability: RAW 264.7 cells, 100 μM loading concentration, 24 h incubation
Method: Cell culture: Murine macrophages (RAW 264.7 cells) that were obtained from the American Type Culture Collection (ATCC, Rockville, MD, USA) were utilized for cell culture experiments.
After 24 h incubation, each well was added with MTT (5 mg/ml in PBS, 10 μL) and then incubated for 4 h. The media from each well was pipetted out, formazan crystals deposited on the plate were dissolved in 200 μL of dimethyl sulfoxide and the absorbance of each well was measured using a microplate reader at 560 nm.
All the samples were analyzed in quadruplicates. The percentage cell viability was then calculated using the formula: % cell viability=(OD of treated sample/OD of the untreated sample)*100.

RAW 264.7 macrophages [1] = assay: Live cell confocal microscopy; assay type: cell-based, Murine; conditions: for fluorescence inside cells after incubation: RAW 264.7 cells, 4 h incubation (6·4Cl 20 μM in PBS); for photobleaching inside cells under imaging conditions: blue laser excitation
Method: RAW 264.7 macrophages (1×10^5 cells/mL, 475 μL) were plated in each well of a 4 well p-slide (ibidi cell focus) and cultured overnight. […] After incubation, cells were washed with phenol free DMEM and stained with LysoTracker green (lysosome stain) or SYTO nuclei (nuclear stain) at 1:10,000 dilutions. Controls used were cells added with only stains, cells only and cells with materials only. Plated cells were imaged within a humidified chamber using a 100× oil-immersion objective on an SP5 Leica Confocal Microscope using HyD detectors and lasers: 405 nm diode laser for material, 561 nm HeNe laser for Lysotracker green, and 633 nm HeNe laser for SYTO 61.

[2] = Absolute fluorescence quantum yield; assay type: physicochemical; conditions: in H2O
Method: (§1) UV/Vis Absorption spectra were recorded using a UV-3600 Shimadzu spectrophotometer. Steady-state emission spectra were acquired using HORIBA Nanolog spectrofluorimeter equipped with an integrating sphere for absolute photoluminescence quantum yield determination and time-correlated single-photon counting (TCSPC) module for emission decays of 4·2Cl in H2O. The time-resolved fluorescence (TRF) measurement of 6·4Cl in H2O was carried out with a streak camera system (Hamamatsu C4334 Streakscope).

Solubility = conditions: H2O
RAW 264.7 macrophages [3] = assay: Calcein AM cell viability assay; assay type: cell-based, Murine; conditions: RAW 264.7 cells, 24 h incubation, 1.56-100 μM
Method: After 24 h of incubation, cells were washed twice with PBS, added with Calcein AM (1 μM, 100 μL in PBS) to each well and then incubated for 1 h in the dark. […] The measured fluorescence intensity (FI) is proportional to the number of viable cells.

RAW 264.7 macrophages [4] = assay: Phototoxicity studies (irradiation, then Calcein AM viability); assay type: cell-based, Murine; conditions: RAW 264.7 cells, different concentrations, light 410 nm, 25 mW, 15 min
Method: After 24 h incubation, wells were washed with PBS, added with 100 μL of DMEM and immediately irradiated with visible light using Max-303 Xenon Light Source (410 nm, Asahi Spectra) at a light intensity of […] for 15 min. Following irradiation cells were incubated overnight and viability was measured using Calcein AM as described above.

[5] = UV light photobleaching / photostability in solution; assay type: physicochemical
Method: Samples were irradiated with a 18 W LED UV flashlight (395 nm, Hinmay super bright LED). They were immersed in a 23±1° C. water bath during irradiation periods. (FIG. 5A-5B)

[6] = Fluorescence at different pH and in serum; assay type: physicochemical
Method: as §1

In the case of `C[n+]1ccc(-c2ccc(-c3cc[n+](C)cc3)cc2)cc1` [2·2Cl, Me2ExBIPY·2Cl], the cell viability (RAW 264.7 cells) is reported as 68%.

With `C[n+]1ccc(-c2nc3sc(-c4cc[n+](C)cc4)nc3s2)cc1` [4·2Cl, 4,4′-(Thiazolo[5,4-d]thiazole-2,5-diyl)bis(1-methylpyridinium), reference compound] the “fluorescence inside cells after incubation” value (from here on “fluorescence inside cells”) (RAW 264.7 macrophages [1]) was “only a little fluorescence”, the “fluorescence inside cells” value (RAW 264.7 macrophages [1]; listed as Me2TzBIPY·2Cl) was “very little fluorescence” and the “photobleaching inside cells under imaging conditions” value (RAW 264.7 macrophages [1]; RAW 264.7 macrophages) was “quenched completely”. The “time until fluorescence inside the cells is quenched” value (RAW 264.7 macrophages [1]; laser irradiation under imaging conditions) was at most 3 s, the “fluorescence quantum yield ΦF” value [2] was 0.95 and the water solubility (Solubility) was “Water soluble”. For the same molecule, the cell viability (RAW 264.7 cells) was about 75%.

For `c1cc2ccc1C[n+]1ccc(cc1)-c1ccc(cc1)-c1cc[n+](cc1)Cc1ccc(cc1)C[n+]1ccc(cc1)-c1nc3sc(nc3s1)-c1cc[n+](cc1)C2` [6·4Cl, ExTz·4Cl], the “cell viability by Calcein AM versus MTT result” value (RAW 264.7 macrophages [3]) was “confirmed”, the phototoxicity (RAW 264.7 macrophages [4]) was “no phototoxicity” and the “fluorescence inside cells” value (RAW 264.7 macrophages [1]) was “brilliant blue emission”. The “photobleaching inside cells under imaging conditions” value (RAW 264.7 macrophages [1]; RAW 264.7 macrophages) was “without any hint of photobleaching”, the cellular uptake (RAW 264.7 macrophages [1]; RAW 264.7 macrophages, confocal microscopy, listed as 6^4+) was “efficiently taken up” and the “fluorescence brightness inside the cells relative to reference 4^2+” value (RAW 264.7 macrophages [1]; live cells) was “six times brighter”. The cellular localization (RAW 264.7 macrophages [1]; living macrophages, co-incubation with LysoTracker green) was “enters the lysosomes”, the “photostability in H2O” value ([5]; H2O, several months under natural daylight) was “extremely photostable” and the “loss of absorbance intensity on UV irradiation (photobleaching)” value ([5]; UV flashlight 18 W, 395 nm, 60 min) was “a little loss of absorbance intensity”. The “fluorescence in serum compared with water” value ([6]; 10% Fetal bovine serum) was “slightly lower fluorescence intensity”, the “change of fluorescence characteristics with pH” value ([6]; pH=1 to 7) was “without any change” and the “fluorescence quantum yield ΦF” value [2] was 1.00. The “fluorescence quantum yield ΦF” value ([2]; listed as 6^4+) was “unity”, the water solubility (Solubility) was “highly water-soluble” and the “cytotoxicity (in words)” value (RAW 264.7 cells; RAW 264.7 macrophages, loading concentration as high as 100 μM) was “non-cytotoxic; also recorded: less cytotoxic”.

In the case of `C[n+]1ccc(-c2cc[n+](C)cc2)cc1` [paraquat, dimethyl viologen], the cell viability (RAW 264.7 cells) is reported as about 63%.

In the case of `c1cc2ccc1C[n+]1ccc(cc1)-c1cc[n+](cc1)Cc1ccc(cc1)C[n+]1ccc(cc1)-c1cc[n+](cc1)C2` [BlueBox, BlueBox·4Cl], the cell viability (RAW 264.7 cells) is reported as “over 96%”.
